Assay results as given in publication PMC6001238, “Iterative Chemical Engineering of Vancomycin Leads to Novel Vancomycin Analogs With a High in Vitro Therapeutic Index” (Frontiers in Microbiology, 2018).
≈ marks a conversion by molar mass, not a printed value. Read-outs that look alike come from different tables or passages of the source.

Key:
[1] = system: human cervix carcinoma (HeLa) cells; experiment: Cytostatic activity, HeLa cell proliferation; format: cell-based; details: mean ± SD of three experiments; highest concentration tested 250 µM; 4 days; read-out: Toxicity (IC50) HeLa
Summary of the method: (§1)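 Coulter counter cell counts after 37°C culture with compound; IC50 = concentration giving 50% growth inhibition vs negative control. Incubation: L1210 2 d, CEM 3 d, HeLa 4 d. Suspension density before mixing with an equal volume of dilution: 300,000–500,000 cells/mL.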

[2] = system: MRSA KS6; experiment: MIC, broth microdilution, MRSA KS6; format: cell-based, Staphylococcus aureus
Summary of the method: (§2)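 CLSI broth microdilution; water and uninoculated-broth controls; one arm supplemented with vancomycin, final 10 μM, given with analogue or control antibiotic.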

[3] = system: MRSA KS89; experiment: MIC, broth microdilution, MRSA KS89; format: cell-based, Staphylococcus aureus
Summary of the method: as §2

[4] = system: E. faecalis VRE 53; experiment: MIC, broth microdilution, vancomycin-resistant E. faecalis VRE 53 (VanA); format: cell-based, Enterococcus faecalis; details: for MIC: read-out: MIC
Summary of the method: as §2

[5] = system: MRSA KS1; experiment: MIC, broth microdilution, MRSA KS1; format: cell-based, Staphylococcus aureus
Summary of the method: as §2

[6] = system: Clostridium difficile AIU ribotype 027; experiment: MIC, plate drop assay, C. difficile AIU ribotype 027; format: cell-based; details: C. difficile AIU ribotype 027
Summary of the method: (§3)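 Lawns of each strain were made in soft BHI agar (0.4%) supplemented with CaCl2⋅2H2O and MgCl2⋅6H2O. Twofold compound dilutions (10 μL) were spotted, air-dried and incubated overnight at 37°C anaerobically; MIC read as cleared spots, in triplicate with water as negative control.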

[7] = system: E. faecalis VSE 1; experiment: MIC, broth microdilution, vancomycin-sensitive E. faecalis (VSE 1); format: cell-based, Enterococcus faecalis; details: for MIC: read-out: MIC
Summary of the method: as §2

[8] = system: B. subtilis PSB3; experiment: MIC, broth microdilution, B. subtilis PSB3; format: cell-based, Bacillus subtilis
Summary of the method: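 Inhibitory concentrations were read by the CLSI broth microdilution procedure, with water and sterile broth as controls. One experiment added vancomycin (10 μM final) together with each analogue or reference antibiotic.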

[9] = system: human T-lymphocyte (CEM) cells; experiment: Cytostatic activity, CEM cell proliferation; format: cell-based; details: mean ± SD of three experiments; highest concentration tested 250 µM; 3 days; read-out: Toxicity (IC50) CEM
Summary of the method: as §1

[10] = system: Murine leukemia (L1210) cells; experiment: Cytostatic activity, L1210 cell proliferation; format: cell-based; details: mean ± SD of three experiments; highest concentration tested 250 µM; 2 days; read-out: Toxicity (IC50) L1210
Summary of the method: as §1

[11] = system: E. faecalis VRE 37; experiment: MIC, broth microdilution, vancomycin-resistant E. faecalis VRE 37 (VanA); format: cell-based, Enterococcus faecalis; details: Enterococcus faecalis VRE 37 (vancomycin-resistant); read-out: MIC
Summary of the method: as §2

[12] = system: Clostridium difficile ATJ ribotype 014/20; experiment: MIC, plate drop assay, C. difficile ATJ ribotype 014/20; format: cell-based; details: C. difficile ATJ ribotype 014/20
Summary of the method: as §3

[13] = system: E. coli XL-1 blue MRF'; experiment: MIC, broth microdilution, E. coli XL-1 blue MRF'; format: cell-based, Escherichia coli; details: E. coli XL-1 blue MRF'
Summary of the method: as §2

[14] = system: E. faecalis VRE 29; experiment: MIC, broth microdilution, vancomycin-resistant E. faecalis VRE 29 (VanA); format: cell-based, Enterococcus faecalis
Summary of the method: as §2

[15] = system: S. aureus VSSA (ATCC 6538); experiment: MIC, broth microdilution, vancomycin-sensitive S. aureus (VSSA/MSSA, ATCC 6538); format: cell-based, Staphylococcus aureus
Summary of the method: as §2

[16] = system: L1210, CEM and HeLa cell lines; experiment: Cytostatic activity, average or summary over L1210, CEM and HeLa; format: cell-based
Summary of the method: as §1

[17] = system: S. aureus VISA/HIP5827; experiment: MIC, broth microdilution, vancomycin-intermediate S. aureus VISA HIP5827; format: cell-based, Staphylococcus aureus
Summary of the method: as §2

[18] = system: E. faecalis VRE 6; experiment: MIC, broth microdilution, vancomycin-resistant E. faecalis VRE 6 (VanA); format: cell-based, Enterococcus faecalis; details: for MIC: read-out: MIC
Summary of the method: as §2

[19] = system: MRSA KS2; experiment: MIC, broth microdilution, MRSA KS2; format: cell-based, Staphylococcus aureus
Summary of the method: as §2

[20] = system: S. aureus VRSA; experiment: MIC, broth microdilution, vancomycin-resistant S. aureus (VRSA); format: cell-based, Staphylococcus aureus
Summary of the method: as §2

[21] = ratio of MIC of vancomycin and MIC of analogue

**Q.** How did the IC50 [1] turn out when `C#Cc1ccc(NC(=O)CNC(=O)C2NC(=O)C3NC(=O)C(NC(=O)C4NC(=O)C(CC(N)=O)NC(=O)C(NC(=O)C(CC(C)C)NC)C(O)c5ccc(c(Cl)c5)Oc5cc4cc(c5OC4OC(CO)C(O)C(O)C4OC4CC(C)(N)C(O)C(C)O4)Oc4ccc(cc4Cl)C3O)c3ccc(O)c(c3)-c3c(O)cc(O)cc32)cc1` (stereo not shown) [Vanc-N] was run?
**A.** The IC50 was > 250 µM.

**Q.** What about the “MIC-fold improvement vs. vancomycin” value ([2]; MRSA KS6, ratio of MIC of vancomycin and MIC of analogue) of the same compound?
**A.** Its value is 2.

**Q.** And the MIC ([2]; Staphylococcus aureus MRSA KS6, read-out: MIC)?
**A.** The MIC was 0.39 µM (≈ 0.626 µg/mL).

**Q.** And the “MIC-fold improvement vs. vancomycin” value ([3]; MRSA KS8, ratio of MIC of vancomycin and MIC of analogue)?
**A.** Its value is 2.

**Q.** What about the MIC ([3]; Staphylococcus aureus MRSA KS8, read-out: MIC) of the same compound?
**A.** Its MIC is 0.39 µM (≈ 0.626 µg/mL).

**Q.** What about the MICvanc/MICi ([4]; E. faecalis VRE 53, ratio of MIC of vancomycin and MIC of analogue) of the same compound?
**A.** Its MICvanc/MICi is 64.

**Q.** What about the MIC ([4]; E. faecalis VRE 53) of the same compound?
**A.** The MIC was 6.25 µM (≈ 10 µg/mL).

**Q.** And the MIC ([4]; Enterococcus faecalis VRE 53 (vancomycin-resistant))?
**A.** Its MIC is 6.25 µM (≈ 10 µg/mL).

**Q.** What about the “MIC-fold improvement vs. vancomycin” value ([4]; VRE 53, ratio of MIC of vancomycin and MIC of analogue) of the same compound?
**A.** The value was 64.

**Q.** What about the “MIC-fold improvement vs. vancomycin” value ([5]; MRSA KS1, ratio of MIC of vancomycin and MIC of analogue) of the same compound?
**A.** Its value is 4.

**Q.** What about the MIC ([5]; Staphylococcus aureus MRSA KS1, read-out: MIC) of the same compound?
**A.** Its MIC is 0.20 µM (≈ 0.321 µg/mL).

**Q.** And the “MIC-fold improvement vs. vancomycin” value [6]?
**A.** The value was 29.

**Q.** What about the MICvanc/MICi ([7]; E. faecalis VSE 1, ratio of MIC of vancomycin and MIC of analogue) of the same compound?
**A.** The MICvanc/MICi was 16.

**Q.** And the MIC ([7]; E. faecalis VSE 1)?
**A.** Its MIC is 0.10 µM (≈ 0.161 µg/mL).

**Q.** What about the MIC ([7]; Enterococcus faecalis VSE 1 (vancomycin-sensitive)) of the same compound?
**A.** Its MIC is 0.10 µM (≈ 0.161 µg/mL).

**Q.** And the “MIC-fold improvement vs. vancomycin” value ([7]; VSE 1, ratio of MIC of vancomycin and MIC of analogue)?
**A.** The value was 16.

**Q.** And the MIC [8]?
**A.** Its MIC is 0.20 µM (≈ 0.321 µg/mL).

**Q.** And the MICvanc/MICi [8, 21]?
**A.** Its MICvanc/MICi is 2.

**Q.** What about the IC50 [9] of the same compound?
**A.** The IC50 was > 250 µM.

**Q.** And the IC50 [10]?
**A.** Its IC50 is > 250 µM.

**Q.** What about the MIC [11] of the same compound?
**A.** Its MIC is 25 µM (≈ 40.1 µg/mL).

**Q.** What about the “MIC-fold improvement vs. vancomycin” value [12] of the same compound?
**A.** The value was 5.6.

**Q.** And the MIC [13]?
**A.** Its MIC is 50 µM (≈ 80.3 µg/mL).

**Q.** And the MICvanc/MICi [13, 21]?
**A.** The MICvanc/MICi was 2.

**Q.** And the MIC ([14]; Enterococcus faecalis VRE 29 (vancomycin-resistant), read-out: MIC)?
**A.** Its MIC is 6.25 µM (≈ 10 µg/mL).

**Q.** What about the “MIC-fold improvement vs. vancomycin” value ([14]; VRE 29, ratio of MIC of vancomycin and MIC of analogue) of the same compound?
**A.** The value was 64.

**Q.** And the MIC ([15]; Staphylococcus aureus VSSA, read-out: MIC)?
**A.** Its MIC is 0.10 µM (≈ 0.161 µg/mL).

**Q.** And the “MIC-fold improvement vs. vancomycin” value ([15]; VSSA, ratio of MIC of vancomycin and MIC of analogue)?
**A.** Its value is 8.

**Q.** What about the IC50 ([16]; average of L1210, CEM and HeLa, read-out: Toxicity (IC50) Average) of the same compound?
**A.** The IC50 was > 250 µM.

**Q.** What about the IC50 ([16]; summary over the three cell lines, read-out: IC50 (L1210, CEM, HeLa), depending on the cell line used) of the same compound?
**A.** Its IC50 is > 250 µM.

**Q.** And the MIC ([17]; Staphylococcus aureus VISA/HIP5827, read-out: MIC)?
**A.** Its MIC is 0.78 µM (≈ 1.25 µg/mL).

**Q.** And the “MIC-fold improvement vs. vancomycin” value ([17]; VISA/HIP5827, ratio of MIC of vancomycin and MIC of analogue)?
**A.** The value was 8.

**Q.** What about the MICvanc/MICi ([18]; E. faecalis VRE 6, ratio of MIC of vancomycin and MIC of analogue) of the same compound?
**A.** Its MICvanc/MICi is 64.

**Q.** What about the MIC ([18]; E. faecalis VRE 6) of the same compound?
**A.** The MIC was 3.13 µM (≈ 5.03 µg/mL).

**Q.** And the MIC ([18]; Enterococcus faecalis VRE 6 (vancomycin-resistant))?
**A.** The MIC was 3.13 µM (≈ 5.03 µg/mL).

**Q.** What about the “MIC-fold improvement vs. vancomycin” value ([18]; VRE 6, ratio of MIC of vancomycin and MIC of analogue) of the same compound?
**A.** The value was 64.

**Q.** And the “MIC-fold improvement vs. vancomycin” value ([19]; MRSA KS2, ratio of MIC of vancomycin and MIC of analogue)?
**A.** Its value is 2.

**Q.** What about the MIC ([19]; Staphylococcus aureus MRSA KS2, read-out: MIC) of the same compound?
**A.** The MIC was 0.39 µM (≈ 0.626 µg/mL).

**Q.** What about the MIC ([20]; Staphylococcus aureus VRSA, read-out: MIC) of the same compound?
**A.** The MIC was 1.56 µM (≈ 2.5 µg/mL).

**Q.** And the “MIC-fold improvement vs. vancomycin” value ([20]; VRSA, ratio of MIC of vancomycin and MIC of analogue)?
**A.** Its value is 64.
